Laboratory results from patent US9150543B2, “Substituted indolyl alkyl amino derivatives as inhibitors of histone deacetylase” (Janssen Pharmaceutica N. V., priority 2004, dated 2015).
Values after ≈ are worked out from the molar mass of the structure shown.

How the values were obtained:
[1] = system: A2780 ovarian carcinoma cells; test: Antiproliferative activity on A2780 cells, MTT (C.2); assay type: cell-based; conditions: Homo sapiens, 96 h, four days of incubation, read-out: Cellular activity pIC50 C.2 (converted)
Protocol: All compounds tested were dissolved in DMSO and further dilutions were made in culture medium. Final DMSO concentrations never exceeded 0.1% (v/v) in cell proliferation assays. Controls contained A2780 cells and DMSO without compound and blanks contained DMSO but no cells. MTT was dissolved at 5 mg/ml in PBS. A glycine buffer comprised of 0.1 M glycine and 0.1 M NaCl buffered to pH 10.5 with NaOH (1N) was prepared (all reagents were from Merck).
The human A2780 ovarian carcinoma cells (a kind gift from Dr. T. C. Hamilton [Fox Chase Cancer Centre, Pennsylvania, USA]) were cultured in RPMI 1640 medium supplemented with 2 mM L-glutamine, 50 μg/ml gentamicin and 10% fetal calf serum. Cells were routinely kept as monolayer cultures at 37° C. in a humidified 5% CO2 atmosphere. Cells were passaged once a week using a trypsin/EDTA solution at a split ratio of 1:40. All media and supplements were obtained from Life Technologies. Cells were free of mycoplasma contamination as determined using the Gen-Probe Mycoplasma Tissue Culture kit (supplier: BioMerieux).
Cells were seeded in NUNC™ 96-well culture plates (Supplier: Life Technologies) and allowed to adhere to the plastic overnight. Densities used for plating were 1500 cells per well in a total volume of 200 μl medium. After cell adhesion to the plates, medium was changed and drugs and/or solvents were added to a final volume of 200 μl. Following four days of incubation, medium was replaced by 200 μl fresh medium and cell density and viability was assessed using an MTT-based assay. To each well, 25 μl MTT solution was added and the cells were further incubated for 2 hours at 37° C. The medium was then carefully aspirated and the blue MTT-formazan product was solubilized by addition of 25 μl glycine buffer followed by 100 μl of DMSO. […] Within an experiment, the results for each experimental condition are the mean of 3 replicate wells. For initial screening purposes, compounds were tested at a single fixed concentration of 10^−6 M. For active compounds, the experiments were repeated to establish full concentration-response curves. For each experiment, controls (containing no drug) and a blank incubation (containing no cells or drugs) were run in parallel. The blank value was subtracted from all control and sample values. For each sample, the mean value for cell growth (in absorbance units) was expressed as a percentage of the mean value for cell growth of the control. […] Herein the effects of test compounds are expressed as pIC50 (the negative log value of the IC50-value)(see Table F-3).

[2] = Solubility/stability at different pH's, chemiluminescent nitrogen detector (C.3.b); assay type: physicochemical; conditions: aqueous buffer; pH = 2.3
Text: In a second method the solubility of a compound at different pH's can be measured with the use of a Chemiluminescent Nitrogen Detector (see example C.3.b).
The solubility of a compound, at different pH's, can also be measured with the use of a chemiluminescent nitrogen detector. (see Table F-3).

[3] = target: histone deacetylase (HeLa nuclear extracts); test: In vitro assay for inhibition of histone deacetylase with fluorescent-labelled substrate (C.1.b); assay type: biochemical; conditions: Fluor de Lys substrate
Protocol: The HDAC Fluorescent Activity Assay/Drug Discovery Kit of Biomol (cat.No: AK-500-0001) was used. The HDAC Fluorescent Activity Assay is based on the Fluor de Lys (Fluorogenic Histone deAcetylase Lysyl) substrate and developer combination. The Fluor de Lys substrate, comprises an acetylated lysine side chain. Deacetylation of the substrate sensitizes the substrate so that, in the second step, treatment with the Fluor de Lys developer produces a fluorophore.
After 30 min, 1 volume of the developer was added. […] For each experiment, controls (containing HeLa nuclear extract and buffer), a blank incubation (containing buffer but no HeLa nuclear extract) and samples (containing compound dissolved in DMSO and further diluted in buffer and HeLa nuclear extract) were run in parallel. In first instance, compounds were tested at a concentration of 10^−5M. […] All sample were tested 4 times. In each test the blank value was subtracted from both the control and the sample values. The control sample represented 100% of substrate deactylation. For each sample the fluorescence was expressed as a percentage of the mean value of the controls. […] Herein the effects of test compounds are expressed as pIC50 (the negative log value of the IC50-value) (see Table F-3).

Row | IC50 [1] [nM] | Enzymatic activity pIC50 C.1.b [3] | Compound | solubility [2] [µg/mL]
1 | 39.8 | 8.2 | CCCn1cc(CCNCC2CCN(c3ncc(C(=O)NO)cn3)CC2)c2ccccc21 [Compound 31] | 
2 | 31.6 | 8.4 | CCn1cc(CNCC2CCN(c3ncc(C(=O)NO)cn3)CC2)c2ccccc21 [Compound 34] | 
3 | 31.6 | 8.6 | Cc1cccc2c(CNCC3CCN(c4ncc(C(=O)NO)cn4)CC3)cn(C)c12 [Compound 37] | 
4 | 31.6 | >9.0 | Cc1cccc2c1c(CNCC1CCN(c3ncc(C(=O)NO)cn3)CC1)cn2C [Compound 38] | 
5 | 31.6 | 8.5 | CCC(CC)n1cc(CNCC2CCN(c3ncc(C(=O)NO)cn3)CC2)c2ccccc21 [Compound 40] | 
6 | 1580 | 8.4 | CCCn1cc(CNCC2CCN(c3ncc(C(=O)NO)cn3)CC2)c2ccc(Cl)cc21 [Compound 41] | 
7 | 10 | 9.0 | O=C(NO)c1cnc(N2CCC(CNCc3cn(C4CCCC4)c4ccccc34)CC2)nc1 [Compound 46] | 
8 | 6.31 | >9.0 | O=C(NO)c1cnc(N2CCC(CNCc3cn(CC4CC4)c4ccccc34)CC2)nc1 [Compound 48] | 
9 | 7.94 | 10.3 | CCCn1cc(CNCC2CCN(c3ncc(C(=O)NO)cn3)CC2)c2cc(F)ccc21 [Compound 52] | 
10 | 10 | 10.0 | CC(C)n1cc(CNCC2CCN(c3ncc(C(=O)NO)cn3)CC2)c2ccccc21 [Compound 53] | 
11 | 12.6 | 10.2 | O=C(NO)c1cnc(N2CCC(CNCc3cn(Cc4ccccc4)c4ccccc34)CC2)nc1 [Compound 54] | 
12 | 25.1 | 9.2 | Cn1cc(CNCC2CCN(c3ncc(C(=O)NO)cn3)CC2)c2ccc(Cl)cc21 [Compound 56] | 
13 | 1580 | 10.0 | Cn1cc(CNCC2CCN(c3ncc(C(=O)NO)cn3)CC2)c2c(Cl)cccc21 [Compound 58] | 
14 | 25.1 | 8.9 | CCn1cc(CNCC2CCN(c3ncc(C(=O)NO)cn3)CC2)c2ccc(OC)cc21 [Compound 61] | 
15 | 10 | 9.5 | CCCn1cc(CNCC2CCN(c3ncc(C(=O)NO)cn3)CC2)c2ccccc21 [Compound 62] | 
16 | 158 | 8.5 | CCC(=O)N(CCc1cn(C)c2ccccc12)CC1CCN(c2ncc(C(=O)NO)cn2)CC1 [Compound 70] | 
17 | 158 | 7.9 | CC(=O)N(Cc1cn(C)c2ccccc12)CC1CCN(c2ncc(C(=O)NO)cn2)CC1 [Compound 72] | 
18 | 79.4 | 8.2 | COc1ccc2c(c1)c(CCNCC1CCN(c3ncc(C(=O)NO)cn3)CC1)cn2C [Compound 74] | 
19 | 79.4 | 7.3 | CCCn1cc(CCNCC2CCN(c3ncc(C(=O)NO)cn3)CC2)c2ccc(OC)cc21 [Compound 75] | 
20 | 200 | 7.8 | Cc1[nH]c2ccccc2c1CCNCC1CCN(c2ncc(C(=O)NO)cn2)CC1 [Compound 76] | 
21 | 31.6 | 8.9 | Cn1cc(CNCC2CCN(c3ncc(C(=O)NO)cn3)CC2)c2ccc(F)cc21 [Compound 81] | 

Further lines, the compound ahead of its results:

Row | Compound | IC50 [1] [nM] | Enzymatic activity pIC50 C.1.b [3] | solubility [2] [µg/mL]
22 | Cn1cc(CNCC2CCN(c3ncc(C(=O)NO)cn3)CC2)c2ccccc21 [Compound 1a] | 6.31 |  | 1400 (≈ 3.55 mM)
23 | O=C(NO)c1cnc(N2CCC(CNCc3cc4ccccc4s3)CC2)nc1 [Compound 9] | 79.4 | 8.3 | 
24 | Cc1ccc2[nH]cc(CNCC3CCN(c4ncc(C(=O)NO)cn4)CC3)c2c1 [Compound 12] | 79.4 | 8.2 | 
25 | O=C(NO)c1cnc(N2CCC(CNCc3c[nH]c4ccc(F)cc34)CC2)nc1 [Compound 13] | 31.6 | 6.0 | 
26 | O=C(NO)c1cnc(N2CCC(CNCc3c[nH]c4ccc(Br)cc34)CC2)nc1 [Compound 15] | 31.6 | 8.5 | 
27 | COc1ccc2[nH]cc(CNCC3CCN(c4ncc(C(=O)NO)cn4)CC3)c2c1 [Compound 16] | 79.4 | 8.6 | 
28 | O=C(NO)c1cnc(N2CCC(CNCCc3c[nH]c4ccc(Cl)cc34)CC2)nc1 [Compound 17] | 158 | 7.8 | 
29 | Cn1cc(CNCC2CCN(c3ncc(C(=O)NO)cn3)CC2)c2cc([N+](=O)[O-])ccc21 [Compound 18] | 10 | 8.3 | 
30 | Cc1[nH]c2ccccc2c1CCNC1CCN(c2ncc(C(=O)NO)cn2)CC1 [Compound 29] | 126 | 7.9 | 
31 | Cc1[nH]c2ccccc2c1CNCC1CCN(c2ncc(C(=O)NO)cn2)CC1 [Compound 35] | 200 | 8.2 | 
32 | Cc1ccc2c(c1)c(CNCC1CCN(c3ncc(C(=O)NO)cn3)CC1)c(C)n2C [Compound 42] | 31.6 | 8.3 | 
33 | Cn1cc(CNCC2CCN(c3ncc(C(=O)NO)cn3)CC2)c2cc(F)ccc21 [Compound 51] | 10 | 9.8 | 
34 | Cn1cc(CNCC2CCN(c3ncc(C(=O)NO)cn3)CC2)c2cc3c(cc21)OCO3 [Compound 59] | 20 | 9.0 | 
35 | O=C(NO)c1cnc(N2CCC(CNCc3cccc4cc[nH]c34)CC2)nc1 [Compound 63] | 31.6 | >9.0 | 
36 | O=C(NO)c1cnc(N2CCC(CNCc3cccc4[nH]ccc34)CC2)nc1 [Compound 64] | 15.8 | 8.9 | 
37 | CCC(=O)N(CCc1cn(C)c2ccc(Cl)cc12)CC1CCN(c2ncc(C(=O)NO)cn2)CC1 [Compound 69] | 200 | 7.6 | 
38 | CCC(=O)N(CCc1cn(C)c2cc(OC)ccc12)CC1CCN(c2ncc(C(=O)NO)cn2)CC1 [Compound 71] | 316 | 7.5 | 
39 | CCN(CCc1cn(C)c2cc(OC)ccc12)CC1CCN(c2ncc(C(=O)NO)cn2)CC1 [Compound 73] | 79.4 | 7.9 | 
40 | Cn1cc(CNCC2CCN(c3ccc(C(=O)NO)cn3)CC2)c2ccccc21 [Compound 80] | 79.4 | 7.8 | 
